Like-named read-outs stand apart in the source and are kept apart here.

As a reminder, the IC50 is the concentration that inhibits the measured activity by half.

The assay has as its system solubilizing enzyme of HB-EGF. Briefly: Inhibition of TPA-stimulated release of HB-EGF from HT-1080 transfectant expressing HB-EGF/alkaline phosphatase fusion protein. In kind it is cell-based, human. The conditions noted are these: HT-1080 HB-EGF-AP transfectant, TPA 60 nM for 60 min, AP activity in conditioned medium (OD405). Here is the method:
Human fibrosarcoma HT-1080 stable transfectant expressing fusion protein of HB-EGF and human placental alkaline phosphatase (AP) were used for following experiments.
The cultured transfectant was treated with Trypsin-EDTA solution, and suspended in Minimum Essential Medium (without phenol red; supplemented with 10% heat-inactivated fetal calf serum; MEM) at the concentration of 1×10^5 cells/ml. Each 0.2 ml of the cell suspension was dispensed into individual wells of 96 well microplate, and incubated overnight in the CO2 incubator (37° C.). After the incubation, the conditioned medium was removed, and the wells were washed once with 0.2 ml of phosphate buffered saline. The cells were treated with 0.1 ml of compound solution [compound solutions in dimethylsulfoxide (DMSO) were diluted 100 times with MEM] for 30 min at 37° C. Then the compound solutions were removed, and cells were treated with 0.2 ml of TPA solution (120 μM) of stock solution was diluted to 60 nM with MEM) containing same concentration of the compound for 60 min at 37° C. The cells treated same procedure without compound were used as control.
After these treatments, each 0.1 ml of conditioned medium was transferred to individual wells of new 96 well microplate and incubated at 65° C. for 10 min to inactivate endogenous alkaline phosphatase. One hundred microliter of substrate solution (1 mg/ml of p-nitrophenyl phosphate in 0.01% magnesium chloride/1 M diethanolamine) for AP was added to each well and incubated for 120 min at room temperature in the dark. The OD405 of each well was measured with microplate reader. The IC50 values of the compounds were calculated from the concentration-inhibition curves.

Regarding `COc1ccc(S(=O)(=O)N2Cc3nccnc3CC2C(=O)NO)cc1` (racemic) [the compound(1), (±)-N-Hydroxy-6-(4-methoxybenzenesulfonyl)-5,6,7,8-tetrahydropyrido[3,4-b]pyrazine-7-carboxamide], the IC50 (read-out: IC50) is 800 nM.
`O=C(NO)C1Cc2nccnc2CN1S(=O)(=O)c1ccc(Oc2ccncc2)cc1` (racemic) [the compound(2), (±)-N-Hydroxy-6-[4-(pyridine-4-yloxy)benzenesulfonyl]-5,6,7,8-tetrahydropyrido[3,4-b]pyrazine-7-carboxamide] gave an IC50 of 990 nM.
For `O=C(NO)C1Cc2nccnc2CN1S(=O)(=O)c1ccc(Oc2ccccc2)cc1` (racemic) [the compound(3), (±)-N-Hydroxy-6-(4-phenoxybenzenesulfonyl)-5,6,7,8-tetrahydropyrido[3,4-b]pyrazine-7-carboxamide], where the note is “read-out: IC50”, the concentration for half-maximal inhibition (IC50) was found to be 1000 nM.
The same measure, in the same setting: for `COCCCOc1ccc(S(=O)(=O)N2Cc3nccnc3CC2C(=O)NO)cc1` (racemic) [the compound(4), (±)-N-Hydroxy-6-[4-(3-methoxypropoxy)benzenesulfonyl]-5,6,7,8-tetrahydropyrido[3,4-b]pyrazine-7-carboxamide] the value was 240 nM.
The compound `O=C(NO)C1Cc2nccnc2CN1S(=O)(=O)c1ccc(Oc2cnccn2)cc1` (racemic) [the compound(5), (±)-N-Hydroxy-6-[4-(pyrazine-2-yloxy)benzenesulfonyl]-5,6,7,8-tetrahydropyrido[3,4-b]pyrazine-7-carboxamide] came in with an IC50 of 900 nM.
For `Nc1ccc(Oc2ccc(S(=O)(=O)N3Cc4nccnc4CC3C(=O)NO)cc2)cc1` (racemic) [the compound(6), (±)-N-Hydroxy-6-[4-(4-aminophenoxy)benzenesulfonyl]-5,6,7,8-tetrahydropyrido[3,4-b]pyrazine-7-carboxamide], the IC50 (read-out: IC50) came to 1100 nM.
On the same count and under the same terms, for `CCOCCOc1ccc(S(=O)(=O)N2Cc3nccnc3CC2C(=O)NO)cc1` (racemic) [the compound(7), (±)-N-Hydroxy-6-[4-(2-ethoxyethoxy)benzenesulfonyl]-5,6,7,8-tetrahydropyrido[3,4-b]pyrazine-7-carboxamide] the value was 260 nM; for `COCCOc1ccc(S(=O)(=O)N2Cc3nccnc3CC2C(=O)NO)cc1` (racemic) [the compound(8), (±)-N-Hydroxy-6-[4-(2-methoxyethoxy)benzenesulfonyl]-5,6,7,8-tetrahydropyrido[3,4-b]pyrazine-7-carboxamide], 840 nM; for `CCCCCOc1ccc(S(=O)(=O)N2Cc3nccnc3CC2C(=O)NO)cc1` (racemic) [the compound(9), (±)-N-Hydroxy-6-(4-pentyloxybenzenesulfonyl)-5,6,7,8-tetrahydropyrido[3,4-b]pyrazine-7-carboxamide], 460 nM.
Consider `CSCCCOc1ccc(S(=O)(=O)N2Cc3nccnc3CC2C(=O)NO)cc1` (racemic) [the compound(10), (±)-N-Hydroxy-6-[4-(3-methylthiopropoxy)benzenesulfonyl]-5,6,7,8-tetrahydropyrido[3,4-b]pyrazine-7-carboxamide], for which half-maximal inhibition (IC50) required 340 nM.
Consider `COCCCCOc1ccc(S(=O)(=O)N2Cc3nccnc3CC2C(=O)NO)cc1` (racemic) [the compound(11), (±)-N-Hydroxy-6-[4-(methoxybutoxy)benzenesulfonyl]-5,6,7,8-tetrahydropyrido[3,4-b]pyrazine-7-carboxamide], for which, for the setting “read-out: IC50”, the IC50 was 1400 nM.
On the same count and under the same terms, for `CCOCCCOc1ccc(S(=O)(=O)N2Cc3nccnc3CC2C(=O)NO)cc1` (racemic) [the compound(12), (±)-N-Hydroxy-6-[4-(ethoxypropoxy)benzenesulfonyl]-5,6,7,8-tetrahydropyrido[3,4-b]pyrazine-7-carboxamide] the value was 160 nM.
Take `O=C(NO)C1Cc2nccnc2CN1S(=O)(=O)c1ccc(OCCF)cc1` (single isomer, unassigned; (+)) [the compound(18), (+)-N-Hydroxy-6-[4-(2-fluoroethoxy)benzenesulfonyl]-5,6,7,8-tetrahydropyrido[3,4-b]pyrazine-7-carboxamide]: under “read-out: IC50”, the IC50 was 160 nM.
Turning to `CC(C)COc1ccc(S(=O)(=O)N2Cc3nccnc3CC2C(=O)NO)cc1` (single isomer, unassigned; (+)) [the compound(22), (+)-N-Hydroxy-6-(4-isobuthoxybenzenesulfonyl)-5,6,7,8-tetrahydropyrido[3,4-b]pyrazine-7-carboxamide], the IC50 (read-out: IC50) worked out at 3600 nM.
Regarding `CCOCCCOc1ccc(S(=O)(=O)N2Cc3nccnc3CC2C(=O)NO)cc1` (single isomer, unassigned; (+)) [the compound(23), (+)-N-Hydroxy-6-[4-(3-ethoxypropoxy)benzenesulfonyl]-5,6,7,8-tetrahydropyrido[3,4-b]pyrazine-7-carboxamide], the IC50 (read-out: IC50) came to 92 nM.
For the compound `O=C(NO)C1Cc2nccnc2CN1S(=O)(=O)c1ccc(OCCCBr)cc1` (single isomer, unassigned; (+)) [the compound(24), (+)-N-Hydroxy-6-[4-(3-bromopropoxy)benzenesulfonyl]-5,6,7,8-tetrahydropyrido[3,4-b]pyrazine-7-carboxamide], the IC50 (read-out: IC50) came to 600 nM.
Same read-out and setting: for `CCCCOCCCOc1ccc(S(=O)(=O)N2Cc3nccnc3CC2C(=O)NO)cc1` (single isomer, unassigned; (+)) [the compound(25), (+)-N-Hydroxy-6-[4-(3-buthoxypropoxy)benzenesulfonyl]-5,6,7,8-tetrahydropyrido[3,4-b]pyrazine-7-carboxamide] the value was 260 nM; for `CC(C)COCCCOc1ccc(S(=O)(=O)N2Cc3nccnc3CC2C(=O)NO)cc1` (single isomer, unassigned; (+)) [the compound(26), (+)-N-Hydroxy-6-[4-(3-isobuthoxypropoxy)benzenesulfonyl]-5,6,7,8-tetrahydropyrido[3,4-b]pyrazine-7-carboxamide], 560 nM.
For `CC(C)(C)C(=O)Oc1ccc(S(=O)(=O)N2Cc3nccnc3CC2C(=O)NO)cc1` (single isomer, unassigned; (+)) [the compound(28), (+)-N-Hydroxy-6-(4-pivaloyloxybenzenesulfonyl)-5,6,7,8-tetrahydropyrido[3,4-b]pyrazine-7-carboxamide], the IC50 (read-out: IC50) came out at 2800 nM.
As for `N#CCCOc1ccc(S(=O)(=O)N2Cc3nccnc3CC2C(=O)NO)cc1` (single isomer, unassigned; (+)) [the compound(29), (+)-N-Hydroxy-6-[4-(2-cyanoethoxy)benzenesulfonyl]-5,6,7,8-tetrahydropyrido[3,4-b]pyrazine-7-carboxamide], the IC50 (read-out: IC50) turned out to be 200 nM.
Same read-out and setting: in the case of `CCOC(=O)COc1ccc(S(=O)(=O)N2Cc3nccnc3CC2C(=O)NO)cc1` (single isomer, unassigned; (+)) [the compound(30), (+)-N-Hydroxy-6-(4-ethoxycarbonylmethoxy-benzenesulfonyl)-5,6,7,8-tetrahydropyrido[3,4-b]pyrazine-7-carboxamide] it was 1000 nM.
Consider `Cc1ccc(S(=O)(=O)N2Cc3nccnc3CC2C(=O)NO)cc1` (single isomer, unassigned; (+)) [the compound(31), (+)-N-Hydroxy-6-(4-methylbenzenesulfonyl)-5,6,7,8-tetrahydropyrido[3,4-b]pyrazine-7-carboxamide], for which the IC50 (read-out: IC50) was determined as 2700 nM.
As to `CCOC(=O)CCCOc1ccc(S(=O)(=O)N2Cc3nccnc3CC2C(=O)NO)cc1` (single isomer, unassigned; (+)) [the compound(32), (+)-N-Hydroxy-6-[4-(3-ethoxycarbonylpropoxy)benzenesulfonyl]-5,6,7,8-tetrahydropyrido[3,4-b]pyrazine-7-carboxamide], the IC50 (read-out: IC50) was found to be 1100 nM.
Still for that read-out and setting: for `CC(=O)OCCOc1ccc(S(=O)(=O)N2Cc3nccnc3CC2C(=O)NO)cc1` (single isomer, unassigned; (+)) [the compound(33), (+)-N-Hydroxy-6-[4-(2-acetoxyethoxy)benzenesulfonyl]-5,6,7,8-tetrahydropyrido[3,4-b]pyrazine-7-carboxamide] the value was 400 nM; for `O=C(NO)C1Cc2nccnc2CN1S(=O)(=O)c1ccc(OCCO)cc1` (single isomer, unassigned; (+)) [the compound(34), (+)-N-Hydroxy-6-[4-(2-hydroxyethoxy)benzenesulfonyl]-5,6,7,8-tetrahydropyrido[3,4-b]pyrazine-7-carboxamide], 1500 nM.
On to `CSc1ccc(S(=O)(=O)N2Cc3nccnc3CC2C(=O)NO)cc1` (single isomer, unassigned; (+)) [the compound(35), (+)-N-Hydroxy-6-(4-methylthiobenzenesulfonyl)-5,6,7,8-tetrahydropyrido[3,4-b]pyrazine-7-carboxamide], for which, for the setting “read-out: IC50”, the IC50 was found to be 1500 nM.
Turning to `CCCCCCc1ccc(S(=O)(=O)N2Cc3nccnc3CC2C(=O)NO)cc1` (single isomer, unassigned; (+)) [the compound(38), (+)-N-Hydroxy-6-(4-hexylbenzenesulfonyl)-5,6,7,8-tetrahydropyrido[3,4-b]pyrazine-7-carboxamide], the IC50 (read-out: IC50) is 1700 nM.

The values are drawn from patent publication US20030229113A1, “Keratinocyte growth inhibitors and hydroxamic acid derivatives” (priority 2003, published 2003).
